From publication PMC9954146, “Anti-Leukaemic Activity of Rilpivirine Is Mediated by Aurora A Kinase Inhibition” (Cancers, 2023)

Key:
Assay in all cases: Kinase panel
Format in all cases: biochemical
Details in all cases: read-out: % Residual Activity
CK1γ2(h) = target: T1, CK1γ2(h) (Homo sapiens, UniProt P78368)
T1 construct: purchased Eurofins (KinaseProfiler)
Method in brief: (§1)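 Rilpivirine was screened across the kinome for selectivity; inhibition was then quantified radiometrically at Km ATP, and Cheng–Prusoff was applied to derive Ki from IC50.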

eEF-2K(h) = target: T2, eEF-2K(h) (Homo sapiens, UniProt O00418)
T2 construct: purchased Eurofins (KinaseProfiler)
Method in brief: as §1

PI3KC2g(h) = PI3KC2g(h) (Homo sapiens, UniProt O75747)
Method in brief: as §1

CDK6/cyclinD3(h) = target: T3, CDK6/cyclinD3(h) (Homo sapiens, UniProt Q00534)
T3 construct: purchased Eurofins (KinaseProfiler)
Method in brief: as §1

EphA7(h) = target: T4, EphA7(h) (Homo sapiens, UniProt Q15375)
T4 construct: purchased Eurofins (KinaseProfiler)
Method in brief: as §1

Tie2(Y897S)(h) = target: T5, Tie2(Y897S)(h) (Homo sapiens, UniProt Q02763, Y897S)
T5 construct: purchased Eurofins (KinaseProfiler)
Method in brief: as §1

CDKL2(h) = target: T6, CDKL2(h) (Homo sapiens, UniProt Q92772)
T6 construct: purchased Eurofins (KinaseProfiler)
Method in brief: as §1

ATM(h) = target: T7, ATM(h) (Homo sapiens, UniProt Q13315)
T7 construct: purchased Eurofins (KinaseProfiler)
Method in brief: as §1

ARK5(h) = target: T8, ARK5(h) (Homo sapiens, UniProt O60285)
T8 construct: purchased Eurofins (KinaseProfiler)
Method in brief: as §1

SAPK4(h) = target: T9, SAPK4(h) (Homo sapiens, UniProt O15264)
T9 construct: purchased Eurofins (KinaseProfiler)
Method in brief: as §1

CaMKIV(h) = target: T10, CaMKIV(h) (Homo sapiens, UniProt Q16566)
T10 construct: purchased Eurofins (KinaseProfiler)
Method in brief: as §1

CDK7/cyclinH/MAT1(h) = target: T11, CDK7/cyclinH/MAT1(h) (Homo sapiens, UniProt P50613)
T11 construct: purchased Eurofins (KinaseProfiler)
Method in brief: as §1

STK32C(h) = target: T12, STK32C(h) (Homo sapiens, UniProt Q86UX6)
T12 construct: purchased Eurofins (KinaseProfiler)
Method in brief: as §1

MELK(h) = target: T13, MELK(h) (Homo sapiens, UniProt Q14680)
T13 construct: purchased Eurofins (KinaseProfiler)
Method in brief: as §1

CDK12/cyclinK(h) = target: T14, CDK12/cyclinK(h) (Homo sapiens, UniProt Q9NYV4)
T14 construct: purchased Eurofins (KinaseProfiler)
Method in brief: as §1

SIK2(h) = target: T15, SIK2(h) (Homo sapiens, UniProt Q9H0K1)
T15 construct: purchased Eurofins (KinaseProfiler)
Method in brief: as §1

[1] = target: PI3 Kinase (p110aH1047R)/p85a)(h) (Homo sapiens, UniProt P42336, H1047R)
Method in brief: as §1

MAPKAP-K3(h) = target: T16, MAPKAP-K3(h) (Homo sapiens, UniProt Q16644)
T16 construct: purchased Eurofins (KinaseProfiler)
Method in brief: as §1

RIPK2(h) = target: T17, RIPK2(h) (Homo sapiens, UniProt O43353)
T17 construct: purchased Eurofins (KinaseProfiler)
Method in brief: as §1

[2] = target: T18, PI3 Kinase (p110a(E545K)/p85a)(m) (Mus musculus, UniProt P42337, E545K)
T18 construct: purchased Eurofins (KinaseProfiler)
Method in brief: as §1

MAPK2(m) = target: T19, MAPK2(m) (Mus musculus, UniProt P63085)
T19 construct: purchased Eurofins (KinaseProfiler)
Method in brief: as §1

Rse(h) = target: T20, Rse(h) (Homo sapiens, UniProt Q06418)
T20 construct: purchased Eurofins (KinaseProfiler)
Method in brief: as §1

SAPK2a(T106M)(h) = target: T21, SAPK2a(T106M)(h) (Homo sapiens, UniProt Q16539, T106M)
T21 construct: purchased Eurofins (KinaseProfiler)
Method in brief: as §1

PDGFRβ(h) = target: T22, PDGFRβ(h) (Homo sapiens, UniProt P09619)
T22 construct: purchased Eurofins (KinaseProfiler)
Method in brief: as §1

Mer(h) = target: T23, Mer(h) (Homo sapiens, UniProt Q12866)
T23 construct: purchased Eurofins (KinaseProfiler)
Method in brief: as §1

Fms(h) = target: T24, Fms(h) (Homo sapiens, UniProt P07333)
T24 construct: purchased Eurofins (KinaseProfiler)
Method in brief: as §1

B-Raf(h) = target: T25, B-Raf(h) (Homo sapiens, UniProt P15056)
T25 construct: purchased Eurofins (KinaseProfiler)
Method in brief: as §1

MSK1(h) = target: T26, MSK1(h) (Homo sapiens, UniProt O75582)
T26 construct: purchased Eurofins (KinaseProfiler)
Method in brief: as §1

ZIPK(h) = target: T27, ZIPK(h) (Homo sapiens, UniProt O43293)
T27 construct: purchased Eurofins (KinaseProfiler)
Method in brief: as §1

DAPK2(h) = target: T28, DAPK2(h) (Homo sapiens, UniProt Q9UIK4)
T28 construct: purchased Eurofins (KinaseProfiler)
Method in brief: as §1

NEK3(h) = target: T29, NEK3(h) (Homo sapiens, UniProt P51956)
T29 construct: purchased Eurofins (KinaseProfiler)
Method in brief: as §1

Ret(h) = target: T30, Ret(h) (Homo sapiens, UniProt P07949)
T30 construct: purchased Eurofins (KinaseProfiler)
Method in brief: as §1

CaMKIIα(h) = target: T31, CaMKIIα(h) (Homo sapiens, UniProt Q9UQM7)
T31 construct: purchased Eurofins (KinaseProfiler)
Method in brief: as §1

BTK(R28H)(h) = target: T32, BTK(R28H)(h) (Homo sapiens, UniProt Q06187, R28H)
T32 construct: purchased Eurofins (KinaseProfiler)
Method in brief: as §1

DMPK(h) = target: T33, DMPK(h) (Homo sapiens, UniProt Q09013)
T33 construct: purchased Eurofins (KinaseProfiler)
Method in brief: as §1

PKCμ(h) = target: T34, PKCμ(h) (Homo sapiens, UniProt Q15139)
T34 construct: purchased Eurofins (KinaseProfiler)
Method in brief: as §1

BTK(h) = target: T35, BTK(h) (Homo sapiens, UniProt Q06187)
T35 construct: purchased Eurofins (KinaseProfiler)
Method in brief: as §1

Met(D1246H)(h) = target: T36, Met(D1246H)(h) (Homo sapiens, UniProt P08581, D1228H)
T36 construct: purchased Eurofins (KinaseProfiler)
Method in brief: as §1

T19 sequence (P63085 2-358 limits assumed): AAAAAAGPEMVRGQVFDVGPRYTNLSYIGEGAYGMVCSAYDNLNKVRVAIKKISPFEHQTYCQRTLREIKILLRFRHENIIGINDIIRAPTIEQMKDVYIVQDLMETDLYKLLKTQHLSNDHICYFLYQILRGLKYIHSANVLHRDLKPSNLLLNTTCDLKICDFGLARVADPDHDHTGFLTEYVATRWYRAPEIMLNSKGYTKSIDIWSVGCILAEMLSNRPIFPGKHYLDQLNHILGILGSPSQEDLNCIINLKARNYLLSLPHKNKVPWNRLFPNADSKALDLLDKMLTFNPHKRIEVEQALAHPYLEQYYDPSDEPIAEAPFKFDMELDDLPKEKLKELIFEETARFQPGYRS
T21 sequence (Q16539 whole entry T106M): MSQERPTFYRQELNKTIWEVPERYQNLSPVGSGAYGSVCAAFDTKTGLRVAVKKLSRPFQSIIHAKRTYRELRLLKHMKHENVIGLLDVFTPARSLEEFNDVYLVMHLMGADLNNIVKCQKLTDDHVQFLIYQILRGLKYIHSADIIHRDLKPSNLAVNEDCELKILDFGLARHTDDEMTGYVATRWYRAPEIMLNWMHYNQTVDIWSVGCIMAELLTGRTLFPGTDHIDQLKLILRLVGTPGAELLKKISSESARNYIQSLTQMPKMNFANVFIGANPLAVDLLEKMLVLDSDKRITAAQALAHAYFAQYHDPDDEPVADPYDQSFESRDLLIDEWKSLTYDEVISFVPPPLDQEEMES
T1 sequence (P78368 whole entry): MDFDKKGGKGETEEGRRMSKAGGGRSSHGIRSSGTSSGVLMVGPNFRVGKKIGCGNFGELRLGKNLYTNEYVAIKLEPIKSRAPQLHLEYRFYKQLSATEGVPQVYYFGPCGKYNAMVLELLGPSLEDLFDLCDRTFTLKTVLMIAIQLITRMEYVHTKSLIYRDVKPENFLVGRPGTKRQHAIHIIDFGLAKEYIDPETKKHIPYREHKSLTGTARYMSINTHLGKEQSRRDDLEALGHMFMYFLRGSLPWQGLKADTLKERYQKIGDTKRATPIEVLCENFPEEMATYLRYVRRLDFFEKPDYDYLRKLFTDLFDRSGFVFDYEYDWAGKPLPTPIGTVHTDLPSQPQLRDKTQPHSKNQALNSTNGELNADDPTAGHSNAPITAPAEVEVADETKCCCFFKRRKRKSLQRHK
T31 sequence (Q9UQM7 whole entry): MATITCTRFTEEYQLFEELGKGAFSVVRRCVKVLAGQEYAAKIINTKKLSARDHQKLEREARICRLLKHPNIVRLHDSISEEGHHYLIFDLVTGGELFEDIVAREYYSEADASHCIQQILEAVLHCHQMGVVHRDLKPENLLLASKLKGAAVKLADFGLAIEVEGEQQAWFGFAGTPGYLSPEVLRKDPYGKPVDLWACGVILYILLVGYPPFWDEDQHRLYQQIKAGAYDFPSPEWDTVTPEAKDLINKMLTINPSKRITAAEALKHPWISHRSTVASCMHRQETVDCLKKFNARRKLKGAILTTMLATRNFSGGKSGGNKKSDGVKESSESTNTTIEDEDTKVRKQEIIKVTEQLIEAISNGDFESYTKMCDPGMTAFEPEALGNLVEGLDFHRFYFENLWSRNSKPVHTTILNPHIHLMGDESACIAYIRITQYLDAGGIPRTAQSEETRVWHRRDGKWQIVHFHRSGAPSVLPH
T32 sequence (Q06187 whole entry R28H): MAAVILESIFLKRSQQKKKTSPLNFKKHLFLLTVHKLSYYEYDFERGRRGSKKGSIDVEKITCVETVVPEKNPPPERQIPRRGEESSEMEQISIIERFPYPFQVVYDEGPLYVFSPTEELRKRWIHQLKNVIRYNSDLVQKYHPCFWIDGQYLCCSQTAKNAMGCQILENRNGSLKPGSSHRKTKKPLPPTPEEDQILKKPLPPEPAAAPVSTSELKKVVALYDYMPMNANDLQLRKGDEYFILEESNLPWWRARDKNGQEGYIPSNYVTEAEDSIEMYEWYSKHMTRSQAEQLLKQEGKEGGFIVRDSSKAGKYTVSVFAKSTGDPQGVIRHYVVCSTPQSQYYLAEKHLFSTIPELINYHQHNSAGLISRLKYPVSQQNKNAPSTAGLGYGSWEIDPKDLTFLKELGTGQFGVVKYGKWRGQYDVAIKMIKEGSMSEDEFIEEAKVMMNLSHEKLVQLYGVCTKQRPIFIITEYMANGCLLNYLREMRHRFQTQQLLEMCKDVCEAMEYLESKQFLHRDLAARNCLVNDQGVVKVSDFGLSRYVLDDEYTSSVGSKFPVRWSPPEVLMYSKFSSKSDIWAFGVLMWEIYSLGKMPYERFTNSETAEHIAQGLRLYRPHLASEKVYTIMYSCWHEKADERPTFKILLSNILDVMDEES
T24 sequence (P07333 20-972): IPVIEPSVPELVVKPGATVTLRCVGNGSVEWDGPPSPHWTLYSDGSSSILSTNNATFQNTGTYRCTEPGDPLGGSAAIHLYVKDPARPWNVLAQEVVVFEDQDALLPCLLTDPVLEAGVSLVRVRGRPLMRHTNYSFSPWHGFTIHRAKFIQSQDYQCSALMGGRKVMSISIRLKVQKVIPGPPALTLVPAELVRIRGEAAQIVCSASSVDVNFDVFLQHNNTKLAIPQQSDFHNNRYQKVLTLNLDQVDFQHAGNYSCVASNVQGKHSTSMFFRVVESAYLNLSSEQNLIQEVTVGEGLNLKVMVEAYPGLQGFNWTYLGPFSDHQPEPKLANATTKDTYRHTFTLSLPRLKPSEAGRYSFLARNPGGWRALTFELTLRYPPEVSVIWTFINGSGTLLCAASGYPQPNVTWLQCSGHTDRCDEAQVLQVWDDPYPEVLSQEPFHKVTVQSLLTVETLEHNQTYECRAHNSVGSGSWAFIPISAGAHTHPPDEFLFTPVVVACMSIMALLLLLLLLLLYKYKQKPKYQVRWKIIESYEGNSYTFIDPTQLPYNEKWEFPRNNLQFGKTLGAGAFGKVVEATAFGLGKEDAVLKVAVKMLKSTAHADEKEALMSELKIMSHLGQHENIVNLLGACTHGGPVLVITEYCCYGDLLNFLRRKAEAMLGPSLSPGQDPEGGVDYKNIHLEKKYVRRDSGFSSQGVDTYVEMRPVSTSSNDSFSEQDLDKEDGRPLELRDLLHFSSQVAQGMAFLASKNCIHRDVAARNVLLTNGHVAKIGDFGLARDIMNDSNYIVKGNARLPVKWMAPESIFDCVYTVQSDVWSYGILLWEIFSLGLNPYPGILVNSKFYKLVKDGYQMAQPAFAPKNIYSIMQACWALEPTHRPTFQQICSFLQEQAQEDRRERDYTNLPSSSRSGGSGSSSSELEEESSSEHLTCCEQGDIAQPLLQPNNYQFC
T26 sequence (O75582 whole entry): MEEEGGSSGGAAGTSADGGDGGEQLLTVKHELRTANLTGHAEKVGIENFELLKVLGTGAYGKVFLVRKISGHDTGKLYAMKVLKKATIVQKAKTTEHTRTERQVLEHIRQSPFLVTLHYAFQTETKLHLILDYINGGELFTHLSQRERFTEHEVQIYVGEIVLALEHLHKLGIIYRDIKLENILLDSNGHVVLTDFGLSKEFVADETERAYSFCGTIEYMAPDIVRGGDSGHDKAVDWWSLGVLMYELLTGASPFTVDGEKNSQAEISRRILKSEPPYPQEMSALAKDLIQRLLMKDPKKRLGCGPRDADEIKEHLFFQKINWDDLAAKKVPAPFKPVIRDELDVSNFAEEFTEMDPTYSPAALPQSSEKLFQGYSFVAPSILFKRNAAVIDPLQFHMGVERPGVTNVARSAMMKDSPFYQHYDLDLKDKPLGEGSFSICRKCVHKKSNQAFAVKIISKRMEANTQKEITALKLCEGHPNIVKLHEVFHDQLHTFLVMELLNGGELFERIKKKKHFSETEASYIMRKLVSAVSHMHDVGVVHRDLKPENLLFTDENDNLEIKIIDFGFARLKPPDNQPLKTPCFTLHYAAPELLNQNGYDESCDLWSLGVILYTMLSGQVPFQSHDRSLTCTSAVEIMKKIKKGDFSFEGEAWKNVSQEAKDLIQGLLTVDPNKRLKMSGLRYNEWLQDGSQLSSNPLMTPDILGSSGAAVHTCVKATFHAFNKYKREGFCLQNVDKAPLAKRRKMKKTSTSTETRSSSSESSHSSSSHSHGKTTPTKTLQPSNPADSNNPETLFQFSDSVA
T36 sequence (P08581 956-1390 D1228H limits assumed): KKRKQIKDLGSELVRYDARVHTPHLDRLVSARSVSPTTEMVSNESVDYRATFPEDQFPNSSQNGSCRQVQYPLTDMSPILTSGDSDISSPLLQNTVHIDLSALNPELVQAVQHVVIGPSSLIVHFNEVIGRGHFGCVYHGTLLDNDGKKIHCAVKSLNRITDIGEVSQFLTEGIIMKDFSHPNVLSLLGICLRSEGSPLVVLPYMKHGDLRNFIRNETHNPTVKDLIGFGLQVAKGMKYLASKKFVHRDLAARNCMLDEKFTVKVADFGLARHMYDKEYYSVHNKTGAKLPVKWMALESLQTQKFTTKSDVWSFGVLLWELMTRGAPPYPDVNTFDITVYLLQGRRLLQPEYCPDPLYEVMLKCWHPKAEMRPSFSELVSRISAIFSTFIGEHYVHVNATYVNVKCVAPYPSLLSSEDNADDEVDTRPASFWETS
T10 sequence (Q16566 whole entry): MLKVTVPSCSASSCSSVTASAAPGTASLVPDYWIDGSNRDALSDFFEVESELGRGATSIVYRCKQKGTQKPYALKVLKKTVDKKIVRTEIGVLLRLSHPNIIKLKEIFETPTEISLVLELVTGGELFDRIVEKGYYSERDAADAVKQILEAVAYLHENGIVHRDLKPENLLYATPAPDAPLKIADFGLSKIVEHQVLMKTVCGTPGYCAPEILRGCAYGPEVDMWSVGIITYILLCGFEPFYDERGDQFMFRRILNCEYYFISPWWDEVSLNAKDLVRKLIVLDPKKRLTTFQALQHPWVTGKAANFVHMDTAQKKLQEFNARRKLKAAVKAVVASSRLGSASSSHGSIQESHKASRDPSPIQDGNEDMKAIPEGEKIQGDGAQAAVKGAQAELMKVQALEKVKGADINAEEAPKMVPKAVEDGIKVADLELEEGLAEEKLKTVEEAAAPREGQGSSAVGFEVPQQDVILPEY
T35 sequence (Q06187 whole entry): as the sequence (Q06187 whole entry R28H) above, with H28R counted along it

Question: Which remaining activity at 1 µM (CK1γ2(h)) does the source give for Cc1cc(/C=C/C#N)cc(C)c1Nc1ccnc(Nc2ccc(C#N)cc2)n1 [rilpivirine, (E)-4-((4-((4-(2-cyanoethenyl)-2,6-dimethylphenyl)amino)pyrimidin-2-yl)amino)benzonitrile] here?
Answer: Its remaining activity at 1 µM is 90%.

Question: And the remaining activity at 1 µM (eEF-2K(h))?
Answer: The remaining activity at 1 µM was 92%.

Question: What about the remaining activity at 1 µM (PI3KC2g(h)) of the same compound?
Answer: Its remaining activity at 1 µM is 82%.

Question: And the remaining activity at 1 µM (CDK6/cyclinD3(h))?
Answer: Its remaining activity at 1 µM is 96%.

Question: What about the remaining activity at 1 µM (EphA7(h)) of the same compound?
Answer: The remaining activity at 1 µM was 96%.

Question: What about the remaining activity at 1 µM (Tie2(Y897S)(h)) of the same compound?
Answer: Its remaining activity at 1 µM is 96%.

Question: And the remaining activity at 1 µM (CDKL2(h))?
Answer: Its remaining activity at 1 µM is 100%.

Question: And the remaining activity at 1 µM (ATM(h))?
Answer: The remaining activity at 1 µM was 111%.

Question: And the remaining activity at 1 µM (ARK5(h))?
Answer: The remaining activity at 1 µM was 82%.

Question: And the remaining activity at 1 µM (SAPK4(h))?
Answer: Its remaining activity at 1 µM is 97%.

Question: And the remaining activity at 1 µM (CaMKIV(h))?
Answer: The remaining activity at 1 µM was 81%.

Question: And the remaining activity at 1 µM (CDK7/cyclinH/MAT1(h))?
Answer: Its remaining activity at 1 µM is 78%.

Question: And the remaining activity at 1 µM (STK32C(h))?
Answer: The remaining activity at 1 µM was 94%.

Question: And the remaining activity at 1 µM (MELK(h))?
Answer: The remaining activity at 1 µM was 56%.

Question: What about the remaining activity at 1 µM (CDK12/cyclinK(h)) of the same compound?
Answer: The remaining activity at 1 µM was 85%.

Question: And the remaining activity at 1 µM (SIK2(h))?
Answer: The remaining activity at 1 µM was 57%.

Question: What about the remaining activity at 1 µM [1] of the same compound?
Answer: The remaining activity at 1 µM was 93%.

Question: And the remaining activity at 1 µM (MAPKAP-K3(h))?
Answer: The remaining activity at 1 µM was 90%.

Question: And the remaining activity at 1 µM (RIPK2(h))?
Answer: The remaining activity at 1 µM was 45%.

Question: And the remaining activity at 1 µM [2]?
Answer: The remaining activity at 1 µM was 97%.

Question: And the remaining activity at 1 µM (MAPK2(m))?
Answer: The remaining activity at 1 µM was 92%.

Question: What about the remaining activity at 1 µM (Rse(h)) of the same compound?
Answer: The remaining activity at 1 µM was 66%.

Question: And the remaining activity at 1 µM (SAPK2a(T106M)(h))?
Answer: The remaining activity at 1 µM was 90%.

Question: What about the remaining activity at 1 µM (PDGFRβ(h)) of the same compound?
Answer: The remaining activity at 1 µM was 93%.

Question: What about the remaining activity at 1 µM (Mer(h)) of the same compound?
Answer: The remaining activity at 1 µM was 74%.

Question: What about the remaining activity at 1 µM (Fms(h)) of the same compound?
Answer: The remaining activity at 1 µM was 91%.

Question: What about the remaining activity at 1 µM (B-Raf(h)) of the same compound?
Answer: Its remaining activity at 1 µM is 80%.

Question: And the remaining activity at 1 µM (MSK1(h))?
Answer: Its remaining activity at 1 µM is 97%.

Question: What about the remaining activity at 1 µM (ZIPK(h)) of the same compound?
Answer: Its remaining activity at 1 µM is 85%.

Question: What about the remaining activity at 1 µM (DAPK2(h)) of the same compound?
Answer: Its remaining activity at 1 µM is 80%.

Question: And the remaining activity at 1 µM (NEK3(h))?
Answer: The remaining activity at 1 µM was 91%.

Question: What about the remaining activity at 1 µM (Ret(h)) of the same compound?
Answer: Its remaining activity at 1 µM is 108%.

Question: And the remaining activity at 1 µM (CaMKIIα(h))?
Answer: Its remaining activity at 1 µM is 61%.

Question: And the remaining activity at 1 µM (BTK(R28H)(h))?
Answer: Its remaining activity at 1 µM is 97%.

Question: And the remaining activity at 1 µM (DMPK(h))?
Answer: Its remaining activity at 1 µM is 100%.

Question: What about the remaining activity at 1 µM (PKCμ(h)) of the same compound?
Answer: The remaining activity at 1 µM was 98%.

Question: What about the remaining activity at 1 µM (BTK(h)) of the same compound?
Answer: Its remaining activity at 1 µM is 90%.

Question: What about the remaining activity at 1 µM (Met(D1246H)(h)) of the same compound?
Answer: The remaining activity at 1 µM was 95%.
